Test results as given in the supplement of paper PMC11451515.

System: SEM cells
Test: cell viability relative to DMSO control; higher = less cytotoxic
Conditions: 48 h
Summary of the method: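 Viability values are per-plate percentages of DMSO wells, with background from cell-free wells. Library compounds in DMSO were pin-dosed, in an 11-point threefold series from 47 μM to 0.79 nM, onto NOMO1 or SEM (500 cells/well) or P12-Ichikawa (1000 cells/well) leukemia cells in 1536-well plates (5 μl). Those cells had been adapted for at least four passages in each medium, and CellTiter-Glo One luminescence was read after 48 h at 37°C.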

[1] = HPLM + 10% dialyzed FBS, 0.000781 µM
[2] = HPLM + 10% dialyzed FBS, 0.00234 µM
[3] = HPLM + 10% dialyzed FBS, 0.00702 µM
[4] = HPLM + 10% dialyzed FBS, 0.0211 µM
[5] = HPLM + 10% dialyzed FBS, 0.0632 µM
[6] = HPLM + 10% dialyzed FBS, 0.19 µM
[7] = HPLM + 10% dialyzed FBS, 0.569 µM
[8] = HPLM + 10% dialyzed FBS, 1.71 µM
[9] = HPLM + 10% dialyzed FBS, 5.12 µM
[10] = HPLM + 10% dialyzed FBS, 15.4 µM
[11] = HPLM + 10% dialyzed FBS, 46.1 µM
[12] = RPMI 5 mM glucose + 10% FBS, 0.000781 µM
[13] = RPMI 5 mM glucose + 10% FBS, 0.00234 µM
[14] = RPMI 5 mM glucose + 10% FBS, 0.00702 µM
[15] = RPMI 5 mM glucose + 10% FBS, 0.0211 µM
[16] = RPMI 5 mM glucose + 10% FBS, 0.0632 µM
[17] = RPMI 5 mM glucose + 10% FBS, 0.19 µM
[18] = RPMI 5 mM glucose + 10% FBS, 0.569 µM
[19] = RPMI 5 mM glucose + 10% FBS, 1.71 µM
[20] = RPMI 5 mM glucose + 10% FBS, 5.12 µM
[21] = RPMI 5 mM glucose + 10% FBS, 15.4 µM
[22] = RPMI 5 mM glucose + 10% FBS, 46.1 µM
[23] = RPMI 5 mM glucose + 10% dialyzed FBS, 0.000781 µM
[24] = RPMI 5 mM glucose + 10% dialyzed FBS, 0.00234 µM
[25] = RPMI 5 mM glucose + 10% dialyzed FBS, 0.00702 µM
[26] = RPMI 5 mM glucose + 10% dialyzed FBS, 0.0211 µM
[27] = RPMI 5 mM glucose + 10% dialyzed FBS, 0.0632 µM
[28] = RPMI 5 mM glucose + 10% dialyzed FBS, 0.19 µM
[29] = RPMI 5 mM glucose + 10% dialyzed FBS, 0.569 µM
[30] = RPMI 5 mM glucose + 10% dialyzed FBS, 1.71 µM
[31] = RPMI 5 mM glucose + 10% dialyzed FBS, 5.12 µM
[32] = RPMI 5 mM glucose + 10% dialyzed FBS, 15.4 µM
[33] = RPMI 5 mM glucose + 10% dialyzed FBS, 46.1 µM

Compound	cell viability [1]	cell viability [2]	cell viability [3]	cell viability [4]	cell viability [5]	cell viability [6]	cell viability [7]	cell viability [8]	cell viability [9]	cell viability [10]	cell viability [11]	cell viability [12]	cell viability [13]	cell viability [14]	cell viability [15]	cell viability [16]	cell viability [17]	cell viability [18]	cell viability [19]	cell viability [20]	cell viability [21]	cell viability [22]	cell viability [23]	cell viability [24]	cell viability [25]	cell viability [26]	cell viability [27]	cell viability [28]	cell viability [29]	cell viability [30]	cell viability [31]	cell viability [32]	cell viability [33]
Cc1c[nH]c(-c2cnc(NCCNc3ccc(C#N)cn3)nc2-c2ccc(Cl)cc2Cl)n1	62.7%	74.5%	62%	65.9%	65.2%	70.5%	45.3%	71.5%	19.6%	26.8%	2.9%	74.9%	93.6%	70.9%	87.6%	85.2%	101%	66.9%	86.4%	34.9%	68.8%	4.99%	70.2%	80.9%	59.9%	67%	69.6%	72.2%	52.9%	84%	24%	33.7%	3.76%
CN1CCN(C(=O)O[C@H]2c3nccnc3C(=O)N2c2ccc(Cl)cn2)CC1	103%	105%	99.8%	104%	101%	89%	108%	97.9%	105%	39.8%	95.8%	101%	106%	109%	111%	109%	96.6%	99.9%	116%	108%	43.4%	89%	110%	105%	113%	111%	102%	105%	110%	110%	103%	30.6%	95.6%
COc1cc(/C=C/C(=O)O)ccc1O	80.5%	92.9%	64.5%	93.6%	92.8%	90.1%	91.9%	106%	44.8%	89.9%	100%	94.1%	89%	62.1%	84.1%	99.5%	94.9%	101%	101%	37.5%	88.4%	98.1%	93.4%	99.2%	68.6%	110%	115%	106%	109%	104%	46%	105%	106%
CO/N=C(/C(=O)N[C@@H]1C(=O)N2C(C(=O)O)=C(CSC(=O)c3ccco3)CS[C@H]12)c1csc(N)n1	62.8%	72.5%	71.3%	68.5%	77.7%	76.5%	82.3%	77.6%	76.9%	88.4%	74.8%	77.5%	86.9%	89.6%	91.3%	97.8%	102%	106%	105%	90.6%	108%	103%	89.1%	93.8%	107%	117%	93%	107%	118%	111%	120%	123%	113%
OCCC#Cc1nc(-c2ccc(F)cc2)c(-c2ccncc2)n1CCCc1ccccc1	86.8%	115%	115%	120%	118%	109%	131%	123%	124%	105%	88.4%	98.3%	122%	112%	118%	103%	130%	116%	127%	126%	107%	85.8%	–	–	–	–	–	–	–	–	–	–	–
CC/1=C(\O)C(=O)\C=C2/C1=C/C=C3\[C@@]2(C)CC[C@@]4(C)[C@@H]5C[C@@](C)(CC[C@]5(C)CC[C@]34C)C(O)=O	109%	102%	102%	119%	113%	109%	118%	97.6%	10.9%	8.14%	5.78%	126%	97.9%	102%	117%	118%	111%	110%	85.7%	8.55%	7.7%	6.91%	97.7%	91.4%	103%	79.8%	112%	89%	108%	61.1%	8.59%	9.09%	6.92%
CC(O)C1C2C(C)\C(=C(/N2C1=O)C(O)=O)SC3CNC(C3)C(=O)N(C)C (stereo not given)	79.6%	64.9%	84%	88.8%	90.4%	81.4%	86.7%	82.3%	90.7%	77.9%	78.5%	80.9%	77.2%	85.2%	90.7%	84.1%	75.7%	92.2%	85.4%	90.7%	83.9%	90.6%	86%	68.8%	98.7%	92.7%	104%	107%	90.8%	90.2%	104%	88.3%	73.9%
C[S+](=O)([O-])c1ccc(Oc2cc(F)cc(C#N)c2)c2c1[C@H](O)C(F)(F)C2	73.5%	97.9%	101%	101%	108%	105%	103%	106%	111%	106%	87.7%	93.8%	117%	152%	140%	138%	155%	144%	156%	141%	158%	124%	76.9%	112%	121%	105%	124%	121%	106%	128%	106%	120%	84.9%
CN(C)C1=C(Br)C=C(C=C1)C\2NC3=C(\C4=C2C(=O)CC(C)(C)C4)C5=CC=CC=C5C=C3 (stereo not given)	113%	119%	125%	130%	131%	131%	113%	120%	128%	120%	97.8%	105%	115%	137%	121%	132%	123%	107%	131%	116%	109%	100%	93.1%	112%	122%	128%	127%	127%	93.1%	114%	126%	118%	85.4%
COc1cc(C(=O)NS(=O)(=O)c2ccccc2C)ccc1Cc1cn(C)c2ccc(NC(=O)OC3CCCC3)cc12	59.7%	55.9%	66.9%	73.4%	87.5%	90%	80.7%	70%	64.4%	62.6%	5.13%	85.4%	83.3%	73.3%	63.4%	92.4%	85.2%	39.6%	70.5%	78.9%	71.3%	4.48%	69.7%	54.8%	64.2%	76.6%	77.9%	83.2%	62.4%	76.5%	63%	72.5%	5.4%
C[C@]12CCC\3=C\4CCC(=O)\C=C4CC[C@H]3[C@@H]1CC[C@@]2(O)CC#N	97.2%	103%	123%	97%	124%	118%	121%	144%	137%	132%	115%	117%	124%	116%	88.3%	143%	116%	138%	130%	146%	139%	128%	–	–	–	–	–	–	–	–	–	–	–
Cc1onc(-c2ccccc2)c1C(=O)N[C@@H]1C(=O)N2[C@@H]1SC(C)(C)[C@@H]2C(=O)[O-].[Na+]	85.9%	75.7%	87.2%	84%	86.5%	75.3%	89.6%	93.4%	85.2%	82.1%	80.2%	109%	94.2%	105%	114%	108%	109%	114%	86.4%	102%	132%	103%	115%	104%	111%	113%	133%	112%	118%	107%	111%	108%	100%
CCCC1OC2C[C@H]3[C@@H]4CCC5=CC(=O)C=C[C@]5(C)[C@H]4C(O)C[C@]3(C)[C@]2(C(=O)CO)O1 (stereo not given in full)	88.6%	84.3%	97.1%	85.3%	69%	67%	62.2%	51%	48%	46.2%	27.4%	95.2%	125%	95.7%	86.7%	81.4%	66%	46.3%	59.9%	48.6%	46.2%	18.2%	87.4%	105%	100%	77.9%	68.8%	59.2%	53.4%	52.3%	50.5%	39.7%	19.3%
Cc1nc(Nc2n[nH]c3c2CN(C(=O)N[C@H](CN(C)C)c2ccccc2)C3(C)C)c2sccc2n1	72.2%	70.6%	51.6%	66.4%	52.6%	48.5%	36.6%	23.8%	15.7%	2.46%	4.3%	91.2%	85.9%	62.8%	79.1%	60.3%	47%	46%	25.7%	15.2%	1.75%	3.09%	82.2%	73%	70.1%	82.1%	64.2%	55.1%	50%	30.4%	21.4%	2.4%	3.71%
